The record followed here is US9969744B2, “Compounds for use in cognition improvement” (FUNDACIÓN PARA LA INVESTIGACIÓN MÉDICA APLICADA, priority 2014, dated 2018).

The subject of experiment [1] is acetylated histone 3 at Lys9 (AcH3K9). In words: HDAC activity using SHSY-5Y cell line (Western blot, histone 3 acetylation). The format is cell-based, human. To be noted: SHSY-5Y cells, 24 hours. The protocol:
HDAC inhibition leads to the corresponding functional response, increase in AcH3 level. Therefore, the cellular assay to conclude HDAC activity was assessed by Western blot analysis using specific antibodies against acetylated histone 3 at Lys9 (AcH3K9). Cell cultures were treated at 100 nM, 500 nM, 1 μM and/or 5 μM with compounds of the invention or known PDE inhibitors during 24 hours and, Table 1 (below) describes the functional activity: histone 3 acetylation level (AcH3) vs basal (no treatment).
A human neuroblastoma cell line (SHSY-5Y) was used. Cell line was obtained from ATCC (CRL-2266) and cultured in 35 mm plates (Becton Dickinson, NJ).
The cells were grown to 90% confluence at 37° C. in an atmosphere of 5% CO2 and in Dulbecco's modified Eagle's medium supplemented with Glutamax (Gibco, Invitrogen, CA), 100 units/ml penicillin/streptomycin, 1×MEM nonessential amino acids and 10% fetal bovine serum (Gibco, Invitrogen, CA).
Cells were collected and sonicated in a buffer containing a cold lysis buffer with protease inhibitors (0.2 M NaCl, 0.1 M HEPES (4-(2-hydroxyethyl)-1-piperazineethanesulfonic acid), 10% glycerol, 200 mM NaF, 2 mM Na4P2O7, 5 mM EDTA (ethylenediaminetetraacetic acid), 1 mM EGTA (ethylene glycol tetraacetic acid), 2 mM DTT (dithiothreitol), 0.5 mM PMSF (phenylmethylsulfonyl fluoride), 1 mM Na3VO4 and Complete Protease Inhibitor Cocktail, Roche Diagnostics), centrifuged at 14,000×g 4° C. for 20 min and the supernatant was aliquoted and stored at −80° C. Total protein concentrations were determined using the BioRad Bradford protein assay (BioRad Laboratories).
Protein samples were mixed with Laemmli sample buffer, resolved onto Sodium Dodecyl Sulfate (SDS)-polyacrylamide gels and transferred to nitrocellulose membrane. The membranes were blocked with 5% milk, 0.05% Tween-20 in PBS (Phosphate-Buffered Saline) or TBS (Tris-Buffered Saline) followed by overnight incubation with the following primary antibodies: rabbit polyclonal anti-acetylated Histone 3 (acetyl K9) (Cell Signalling Technology), rabbit polyclonal anti-total Histone 3 (Millipore), in the corresponding buffer. All the antibodies were used at 1:1000 dilution except the mouse monoclonal anti-β-actin which was used at 1:50.000. Following two washes in TBS/Tween20 and one wash in TBS alone, immunolabeled protein bands were detected by using HRP-conjugated anti-rabbit or anti-mouse antibody (Santa Cruz Biotechnology; dilution 1:5.000) following an enhanced chemiluminescence system (ECL, GE Healthcare Bioscience, Buckinghamshire, UK), and autoradiographic exposure to HyperfilmtECL (GE Healthcare Bioscience). Quantity One™ software v.4.6.3 (Bio-Rad) was used for quantification.
On the technique in general: Immunoblotting shows a protein as a band on a membrane.

In experiment [2] the test system is phosphorylated tau (p-Tau). In words: AD-related markers in Tg2576 neurons: pTau. The format is cell-based, mouse. The following applies: Tg2576 primary neurons, compound concentration 50 nM. The protocol:
The effects of the compounds on amyloid pathology were analysed in primary cultures after 21 days in-vitro (DIV) of neurons derived from the hippocampus and cortex of Tg2576 mouse embryos. Tg2576 mice express the human 695-aa isoform of APP (hAPP) containing the Swedish double mutation, which favours A3 production. Neurons were treated for two days and collected at day 3, 24 h after the last treatment. First it was analysed the effect of the compounds on hAPP processing by the amyloidogenic pathway by measuring the carboxyl terminal fragment AβPP (C99), which is the precursor of Aβ42. […]
It was next analyzed the effect of the compounds on levels of phosphorylated tau (p-Tau) in the same samples, another marker of AD, using a phospho-specific antibody (AT8) that recognizes hyperphosphorylated epitopes on Ser202/Thr205. […]
To analyze APP-derived fragments and p-Tau levels in primary neuronal cultures, cells were collected in a buffer containing SDS (2%), Tris-HCl (10 mM, pH 7.4), protease inhibitors (1 mM phenylmethylsulfonyl fluoride (PMSF) and Complete Protease Inhibitor Cocktail: Roche Diagnostics) and phosphatase inhibitors (0.1 mM Na3VO4 and 1 mM NaF). […] Aliquots of the supernatant were frozen at […] and their protein concentrations determined by the Bradford method using the Bio-Rad protein assay (Bio-Rad, Hercules, Calif., USA). […]

With `CCCc1nn(C)c2c(=O)[nH]c(-c3cc(Cc4ccc(C(=O)Nc5ccccc5N)cc4)ccc3OCC)nc12` [Example 1-11, N-(2-aminophenyl)-4-[[4-ethoxy-3-(1-methyl-7-oxo-3-propyl-6H-pyrazolo[4,3-d]pyrimidin-5-yl)phenyl]methyl]benzamide], the “AcH3: increment in Histone 3 acetylation level vs basal” value in experiment [1] (compound concentration 100 nM) is on record as “++ (basal x1.4≤(++)<basal x2)”; in experiment [1] (compound concentration 500 nM) it was “++ (basal x1.4≤(++)<basal x2)”; in experiment [1] (compound concentration 1 μM) it was “+++ (basal x2≤(+++)<basal x3)”. For the same compound, the “decrease in pTau levels over basal” value in experiment [2] was “++ (basal x0.2≤(++)<basal x0.4 (reduction between 20% and 40%))”.
